Data reported in patent publication US4221789A, “Lactam-N-acetic acids and their amides” (UCB, Societe Anonyme, priority 1978, dated 1980).
Structures can show the parent of a compound that is named as a salt. Where two headings read alike, the source gives them in different places.

Experiments:
[1] = system: mice; experiment: toxicity in mice, intraperitoneal (Irwin's test); type: in vivo
From the text: The compounds of formula I have a remarkably low toxicity.
*Dose which brings about the death of one animal out of three in Irwin's
test (S. IRWIN, Gordon Research Conference on Medicinal Chemistry, Colby
Junior College, New London, 1959).

[2] = system: rat; experiment: active avoidance test (memory retention; paw withdrawal threshold); type: in vivo; settings: for minimal effective dose: sc, read-out: Active dose
From the text: (A) The action on mnemic processes is first shown by the ability of the compounds to improve a type of memory retention in the rat. The principle of the active avoidance test (see M. GREINDL and S. PREAT, Arch.Int. Pharmacodyn.Therap.223,(1976),(1),168-171) developed in our laboratories and used for this purpose, may be described as follows: the withdrawal reaction of a rat's paw when subjected to an increasing, quantified pressure is observed. The pressure at which the withdrawal reaction is produced, is called the reaction threshold. This threshold is expressed by the number of graduations of the scale of the apparatus used (Analgesymeter Ugo Basile, Milan) and thus corresponds to the minimum pressure which brings about withdrawal when applied to the animal's paw. It is read off directly on the scale of the apparatus used.
Inversely, animals treated with a substance having a positive effect on the mnemic processes (such as piracetam) show a significant degree of retention: the stimulus to which the rats react by a reflex of avoidance is statistically lower than that of the control animals. A minimum of 20 rats per test are used (10 treated rats and 10 control rats) and the active dose is defined as the minimum dose lowering the stimulus to below 11 graduations.

[3] = system: rat; experiment: reduction of the spinal fixation time; type: in vivo; settings: for minimal effective dose: ip, 35 min, read-out: Active dose
From the text: (B) The action on the mnemic processes is also shown by the reduction of the spinal fixation time, a test which has been described in literature (see C. GIURGEA and F. MOURAVIEFF-LESUISSE, Arch.Int.Pharmacodyn.191,(1971,No. 2), 279) as an elementary model of memory and which provides pharmacological reactivity in good correlation with clinical physiopathology. In the rat, after unilateral lesion of the cerebellum, there is a postural asymmetry of the hind paws. This asymmetry may-persist, even after spinal section, if the animal has passed a sufficient period of time in this position. This time, which is called the spinal fixation time, is 45 minutes under the experimental conditions applied here.
On the other hand, if spinal section is performed before the expiry of this period of time, for example 35 minutes after the onset of asymmetry, the latter disappears.
Inversely, any product which allows the rats to retain the asymmetry (thus effecting spinal fixation), when the spinal section is performed after 35 minutes, is considered to be active.
By "number of animals" is to be understood the number of animals which responded positively to the test in relation to the number of animals tested at the dose indicated: […]

[4] = toxicity in the rat, intravenous or oral (LD 50); settings: in vivo
From the text: Furthermore, when administered intravenously (i.v.) or orally in the rat, the compounds also have a low toxicity, as indicated in the following Table: […]

[5] = system: papillary muscle isolated from the cat's heart; experiment: "papillary muscle" test (inotropic activity); settings: for activation at 10 µg/kg, 0.01 mg/kg: Felis catus, read-out: increase of the strength of muscular contraction
Description: The method used is that of M. K. CATTELL and H. GOLD (J.Pharmacol.Exptl. Therap.62, (1938), 116-125). The experiment is carried out on a papillary muscle isolated from the cat's heart and dipped in a physiological salt solution to which the compound to be tested is added.

[6] = rat, subcutaneous, minimum dose lowering the stimulus to below 11 graduations, tested 24 hours later
[7] = rat, intraperitoneal, spinal section after 35 minutes
[8] = rat, intraperitoneal, 0.1 mmol/kg, spinal section after 35 minutes
[9] = rat, intraperitoneal, 0.2 mmol/kg, spinal section after 35 minutes

Compound | Dose which brings about the death of one animal out of three in Irwin's test ([1]; mice, intraperitoneal) [mg/kg] | minimal effective dose ([2]; Rattus norvegicus, 24 h) [µmol/kg] | Dose which brings about the death of one animal out of three in Irwin's test ([1]; mouse, in vivo, ip) [mg/kg] | other results
O=C(C(CCO)N1CCCC1=O)N1CCOCC1 (centres unmarked) [Example 6.1, 4-[4-Hydroxy-2-(2-oxo-1-pyrrolidinyl)butyryl]-morpholine] | > 1536 | 0.2 |  | 
O=C(C(CCO)N1CCCC1=O)N1CCN(Cc2ccccc2)CC1 (centres unmarked) [Example 6.4, 1-Benzyl-4-[4-hydroxy-2-(2-oxo-1-pyrrolidinyl)butyryl]-piperazine] |  |  | > 345 | minimal effective dose [2, 6]: 1 µmol/kg
O=C(O)CN1CCCC1=O [Compound C, 2-oxo-1-pyrrolidineacetic acid, reference compound] |  |  |  | minimal effective dose [3, 7]: 320 µmol/kg; Number of animals which responded positively / number tested ([3]; rat, intraperitoneal, 0.32 mmol/kg, spinal section after 35 minutes): 2/4; activity in the active avoidance test ([2]; rat, subcutaneous, at the dose of 0.1 mmol/kg): inactive
O=C(NC1CCCC1)C(CCO)N1CCCC1=O (stereo not drawn) [Example 6.5, N-cyclopentyl-alpha-(2-hydroxyethyl)-2-oxo-1-pyrrolidineacetamide] |  |  | > 762 | minimal effective dose [2, 6]: 0.2 µmol/kg
O=C(O)C(CCO)N1CCCC1=O (stereo not drawn) [Example 3, alpha-(2-Hydroxyethyl)-2-oxo-1-pyrrolidineacetic acid] |  |  | > 1222 | minimal effective dose [3, 7]: 100 µmol/kg; Number of animals which responded positively / number tested [3, 8]: 4/7
CCCCC1CCN(C(CCO)C(N)=O)C1=O (stereo not drawn) [Example 4.4, 3-n-Butyl-alpha-(2-hydroxyethyl)-2-oxo-1-pyrrolidineacetamide] |  |  | > 1452 | 
O=C(NC1CCCCC1)C(CCO)N1CCCC1=O (stereo not drawn) [Example 5.2, N-Cyclohexyl-alpha-(2-hydroxyethyl)-2-oxo-1-pyrrolidineacetamide] |  |  | > 1608 | 
O=C(NCc1ccccc1)C(CCO)N1CCCC1=O (stereo not drawn) [Example 6.6, N-Benzyl-alpha-(2-hydroxyethyl)-2-oxo-1-pyrrolidineacetamide] | 822 | 2 |  | minimal effective dose ([3]; Rattus norvegicus): 100 µmol/kg; Number of animals which responded positively / number tested [3, 8]: 3/7
CCC(C(N)=O)N1CCCC1=O (stereo not drawn) [Compound B, alpha-ethyl-2-oxo-1-pyrrolidineacetamide, reference compound] |  | 5 |  | minimal effective dose [3, 7]: 200 µmol/kg; Number of animals which responded positively / number tested [3, 9]: 7/22
CCCCNC(=O)C(CCO)N1CCCC1=O (stereo not drawn) [Example 5.1, N-n-Butyl-alpha-(2-hydroxyethyl)-2-oxo-1-pyrrolidineacetamide] | > 1452 |  |  | 
O=C(C(CCO)N1CCCC1=O)N1CCCCC1 (centres unmarked) [Example 6.2, 1-[4-Hydroxy-2-(2-oxo-1-pyrrolidinyl)butyryl]-piperidine] | > 1524 |  |  | 
CC(C)NC(=O)C(CCO)N1CCCC1=O (stereo not drawn) [Example 5.4, alpha-(2-Hydroxyethyl)-N-isopropyl-2-oxo-1-pyrrolidineacetamide] | > 1368 |  |  | 
CC1CCN(C(CCO)C(N)=O)C1=O (stereo not drawn) [Example 4.2, alpha-(2-Hydroxyethyl)-3-methyl-2-oxo-1-pyrrolidineacetamide] | > 1200 |  |  | 
CCCNC(=O)C(CCO)N1CCCC1=O (stereo not drawn) [Example 6.3, alpha-(2-Hydroxyethyl)-N-propyl-2-oxo-1-pyrrolidineacetamide] | > 1368 | 0.1 |  | 
CCN(CC)C(=O)C(CCO)N1CCCC1=O (stereo not drawn) [Example 5.3, N,N-Diethyl-alpha-(2-hydroxyethyl)-2-oxo-1-pyrrolidineacetamide] | > 1452 | 0.2 |  | 
NC(=O)C(CCO)N1CC(c2ccc(Cl)cc2)C(c2ccccc2)C1=O (stereo not drawn) [Example 4.5, 4-p-Chlorophenyl-alpha-(2-hydroxyethyl)-3-phenyl-2-oxo-1-pyrrolidineacetamide] |  |  | > 224 | 
NC(=O)CN1CCCC1=O [Compound A, 2-oxo-1-pyrrolidineacetamide, reference compound] |  | 25 |  | minimal effective dose [3, 7]: 200 µmol/kg; Number of animals which responded positively / number tested [3, 9]: 4/9
O=C(O)C(O)N1CCCC1=O (stereo not drawn) [Example 2, alpha-Hydroxy-2-oxo-1-pyrrolidineacetic acid (dicyclohexylamine salt)] |  |  | > 102 | minimal effective dose [3, 7]: 100 µmol/kg; Number of animals which responded positively / number tested [3, 8]: 4/7; minimal effective dose [2, 6]: 5 µmol/kg
CC1CC(C)N(C(CCO)C(N)=O)C1=O (stereo not drawn) [Example 4.3, alpha-(2-Hydroxyethyl)-3,5-dimethyl-2-oxo-1-pyrrolidineacetamide] | > 1286 |  |  | 
NC(=O)C(CCO)N1CCCC1=O (stereo not drawn) [Example 4.1, alpha-(2-Hydroxyethyl)-2-oxo-1-pyrrolidineacetamide] | > 1116 | 2 |  | minimal effective dose ([3]; Rattus norvegicus): 100 µmol/kg; Number of animals which responded positively / number tested [3, 8]: 3/7; LD50 ([4]; iv): > 4000 mg/kg; LD50 ([4]; po, orally): > 10000 mg/kg; activation at 10 µg/kg, 0.01 mg/kg [5]: 7%; inotropic activity ([5]; isolated cat papillary muscle, comparison with caffeine): superior to that of caffeine
Cn1c(=O)c2c(ncn2C)n(C)c1=O [caffeine, reference compound] |  |  |  | activation at 10 µg/kg, 0.01 mg/kg ([5]; isolated cat papillary muscle, at the dose of 10 μg/kg): 4%
